Patent US8563542B2 (Cyclacel Limited, priority 2007, dated 2013)

Key:
[1] = target: PLK1 (Homo sapiens, UniProt P53350); assay: PLK1 protein kinase assay (CDC25C phosphorylation, [γ-32P]-ATP); assay type: biochemical; conditions: Table 2, PLK1 IC50; class symbols; read-out: PLK1 IC50
[2] = target: T1, AA (Homo sapiens, UniProt O14965); assay: AA IC50 (Table 1; no method given); assay type: biochemical; conditions: Table 2, AurA IC50; class symbols; read-out: AurA IC50
T1 sequence (O14965 1-403): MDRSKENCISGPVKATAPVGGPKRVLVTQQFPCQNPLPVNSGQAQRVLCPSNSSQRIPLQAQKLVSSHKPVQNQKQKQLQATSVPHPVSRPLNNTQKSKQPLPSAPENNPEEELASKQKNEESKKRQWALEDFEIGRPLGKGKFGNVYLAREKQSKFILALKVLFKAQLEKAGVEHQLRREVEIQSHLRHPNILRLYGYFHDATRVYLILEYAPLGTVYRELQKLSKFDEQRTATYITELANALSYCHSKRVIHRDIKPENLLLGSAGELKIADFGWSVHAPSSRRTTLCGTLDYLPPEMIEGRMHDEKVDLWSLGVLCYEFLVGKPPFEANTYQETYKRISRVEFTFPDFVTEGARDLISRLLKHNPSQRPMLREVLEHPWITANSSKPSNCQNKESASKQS

Chain of PLK1 (P53350 whole entry): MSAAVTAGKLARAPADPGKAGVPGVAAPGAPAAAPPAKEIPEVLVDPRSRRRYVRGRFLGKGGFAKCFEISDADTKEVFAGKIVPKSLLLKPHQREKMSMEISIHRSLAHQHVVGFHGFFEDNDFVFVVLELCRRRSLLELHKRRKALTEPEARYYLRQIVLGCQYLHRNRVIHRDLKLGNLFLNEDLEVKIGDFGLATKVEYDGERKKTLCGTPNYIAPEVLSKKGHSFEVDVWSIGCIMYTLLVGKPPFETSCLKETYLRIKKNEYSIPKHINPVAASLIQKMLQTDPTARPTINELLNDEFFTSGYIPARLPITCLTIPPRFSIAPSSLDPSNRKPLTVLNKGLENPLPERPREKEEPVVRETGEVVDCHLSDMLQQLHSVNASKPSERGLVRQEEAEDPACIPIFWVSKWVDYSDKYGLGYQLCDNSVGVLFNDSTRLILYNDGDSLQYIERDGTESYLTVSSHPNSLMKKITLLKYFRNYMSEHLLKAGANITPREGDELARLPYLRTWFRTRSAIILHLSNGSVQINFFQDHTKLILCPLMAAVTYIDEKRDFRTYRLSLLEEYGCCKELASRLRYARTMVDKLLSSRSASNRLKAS

Row | SMILES | IC50 [1] [µM] | IC50 [2] [µM]
1 | Cc1cc2cc(Nc3ncc4c(n3)N(C3CCCC3)CCC(=O)N4C)ccc2[nH]1 [compound 125, 9-Cyclopentyl-5-methyl-2-(2-methyl-1H-indol-5-ylamino)-5,7,8,9-tetrahydro-pyrimido[4,5-b][1,4]diazepin-6-one] | < 1 | < 0.1
2 | CN1C(=O)CCN(C2CCCC2)c2nc(NCc3cccc4c3OCCO4)ncc21 [compound 128, 9-Cyclopentyl-2-[(2,3-dihydro-benzo[1,4]dioxin-5-ylmethyl)-amino]-5-methyl-5,7,8,9-tetrahydro-pyrimido[4,5-b][1,4]diazepin-6-one] | < 1 | < 10
3 | CN1C(=O)CCN(C2CCCC2)c2nc(Nc3ccc4cc[nH]c4c3)ncc21 [compound 130, 9-Cyclopentyl-2-(1H-indo1-6-ylamino)-5-methyl-5,7,8,9-tetrahydro-pyrimido[4,5-b][1,4]diazepin-6-one] | < 10 | < 1
4 | CN1C(=O)CCN(C2CCCC2)c2nc(NCc3ccc(-c4csnn4)cc3)ncc21 [compound 132, 9-Cyclopentyl-5-methyl-2-(4-[1,2,3]thiadiazol-4-yl-benzylamino)-5,7,8,9-tetrahydro-pyrimido[4,5-b][1,4]diazepin-6-one] | < 10 | < 10
5 | Cc1cccc(Nc2ncc3c(n2)N(C2CCCC2)CCC(=O)N3C)c1 [compound 137, 9-Cyclopentyl-5-methyl-2-m-tolylamino-5,7,8,9-tetrahydro-pyrimido[4,5-b][1,4]diazepin-6-one] | < 10 | < 0.1
6 | COc1cccc(Nc2ncc3c(n2)N(C2CCCC2)CCC(=O)N3C)c1 [compound 138, 9-Cyclopentyl-2-(3-methoxy-phenylamino)-5-methyl-5,7.8,9-tetrahydro-pyrimido[4,5-b][1,4]diazepin-6-one] | < 10 | < 1
7 | CN1C(=O)CCN(C2CCCC2)c2nc(Nc3ccc4[nH]ncc4c3)ncc21 [compound 139, 9-Cyclopentyl-2-(1H-indazol-5-ylamino)-5-methyl-5,7,8,9-tetrahydro-pyrimido[4,5-b][1,4]diazepin-6-one] | < 1 | < 0.1
8 | Cc1c(Nc2ncc3c(n2)N(C2CCCC2)CCC(=O)N3C)cccc1C(=O)NC1CCN(C)CC1 [compound 140, 3-(9-Cyclopentyl-5-methyl-6-oxo-6,7,8,9-tetrahydro-5H-pyrimido[4,5-b][1,4]diazepin-2-ylamino)-2-methyl-N-(1-methyl-piperidin-4-yl)-benzamide] | < 10 | < 10
9 | CN1C(=O)CCN(C2CCCC2)c2nc(Nc3cccc(S(=O)(=O)N4CCNCC4)c3)ncc21 [compound 146] | < 10 | < 10
10 | COc1cc(C(=O)NCCCCO)ccc1Nc1ncc2c(n1)N(C1CCCC1)CCC(=O)N2C [compound 151, 4-(9-Cyclopentyl-5-methyl-6-oxo-6,7,8,9-tetrahydro-5H-pyrimido[4,5-b][1,4]diazepin-2-ylamino)-N-(4-hydroxy-butyl)-3-methoxy-benzamide] | < 1 | < 10
11 | CN1C(=O)CCN(C2CCCC2)c2nc(Nc3ccc(CCC(=O)O)cc3)ncc21 [compound 170, 3-[4-(9-Cyclopentyl-5-methyl-6-oxo-6,7,8,9-tetrahydro-5H-pyrimido[4,5-b][1,4]diazepin-2-ylamino)-phenyl]-propionic acid] | < 10 | < 0.1
12 | CC(=O)Nc1ccc(Nc2ncc3c(n2)N(C2CCCC2)CCC(=O)N3C)cc1 [compound 171, N-[4-(9-Cyclopentyl-5-methyl-6-oxo-6,7,8,9-tetrahydro-5H-pyrimido[4,5-b][1,4]diazepin-2-ylamino)-phenyl]-acetamide] | < 10 | < 0.1
13 | CN1C(=O)CCN(C2CCCC2)c2nc(Nc3ccc(CC(=O)O)cc3)ncc21 [compound 172, [4-(9-Cyclopentyl-5-methyl-6-oxo-6,7,8,9-tetrahydro-5H-pyrimido[4,5-b][1,4]diazepin-2-ylamino)-phenyl]-acetic acid] | < 10 | < 0.1
14 | CN1C(=O)CCN(C2CCCC2)c2nc(Nc3ccc4c(c3)CC(=O)N4)ncc21 [compound 173, 9-Cyclopentyl-5-methyl-2-(2-oxo-2,3-dihydro-1H-indo1-5-ylamino)-5,7,8,9-tetrahydro-pyrimido[4,5-b][1,4]diazepin-6-one] | < 10 | < 0.1
15 | Cc1cc(C(=O)O)ccc1Nc1ncc2c(n1)N(C1CCCC1)CCC(=O)N2C [compound 174, 4-(9-Cyclopentyl-5-methyl-6-oxo-6,7,8,9-tetrahydro-5H-pyrimido[4,5-b][1,4]diazepin-2-ylamino)-3-methyl-benzoic acid] | < 1 | < 10
16 | CN1C(=O)CCN(C2CCCC2)c2nc(Nc3ccc(C(=O)NC4CC4)cc3)ncc21 [compound 176, 4-(9-Cyclopentyl-5-methyl-6-oxo-6,7,8,9-tetrahydro-5H-pyrimido[4,5-b][1,4]diazepin-2-ylamino)-N-cyclopropyl-benzamide] | < 1 | < 0.1
17 | CN1C(=O)CCN(C2CCCC2)c2nc(Nc3cccc(CN4CCS(=O)(=O)CC4)c3)ncc21 [compound 177, 9-Cyclopentyl-2-[3-(1,1-dioxo-thiomorpholin-4-ylmethyl)-phenylamino]-5-methyl-5,7,8,9-tetrahydro-pyrimido[4,5-b][1,4]diazepin-6-one] | < 1 | < 0.1
18 | CN1C(=O)CCN(C2CCCC2)c2nc(Nc3ccc(NC(=O)C4CC4)cc3)ncc21 [compound 178, Cyclopropanecarboxylic acid [4-(9-cyclopentyl-5-methyl-6-oxo-6,7,8,9-tetrahydro-5H-pyrimido[4,5-b][1,4]diazepin-2-ylamino)-phenyl]-amide] | < 1 | < 0.1
19 | Cc1cc(Nc2ncc3c(n2)N(C2CCCC2)CCC(=O)N3C)ccc1NC(=O)C1CC1 [compound 179, Cyclopropanecarboxylic acid [4-(9-cyclopentyl-5-methyl-6-oxo-6,7,8,9-tetrahydro-5H-pyrimido[4,5-b][1,4]diazepin-2-ylamino)-2-methyl-phenyl]-amide] | < 10 | < 0.1
20 | CN1CCC(NC(=O)CCc2ccc(Nc3ncc4c(n3)N(C3CCCC3)CCC(=O)N4C)cc2)CC1 [compound 180, 3-[4-(9-Cyclopentyl-5-methyl-6-oxo-6,7,8,9-tetrahydro-5H-pyrimido[4,5-b][1,4]diazepin-2-ylamino)-phenyl]-N-(1-methyl-piperidin-4-yl)-propionamide] | < 10 | < 0.1
21 | CN1CCC(NC(=O)Cc2ccc(Nc3ncc4c(n3)N(C3CCCC3)CCC(=O)N4C)cc2)CC1 [compound 181, 2-[4-(9-Cyclopentyl-5-methyl-6-oxo-6,7,8,9-tetrahydro-5H-pyrimido[4,5-b][1,4]diazepin-2-ylamino)-phenyl]-N-(1-methyl-piperidin-4-yl)-acetamide] | < 10 | < 0.1
22 | CCc1cc(C(=O)O)ccc1Nc1ncc2c(n1)N(C1CCCC1)CCC(=O)N2C [compound 192, 4-(9-Cyclopentyl-5-methyl-6-oxo-6,7,8,9-tetrahydro-5H-pyrimido[4,5-b][1,4]diazepin-2-ylamino)-3-ethyl benzoic acid] | < 10 | < 10
